US20050031597A1, “Cells and improved method for preserving cells” (priority 2003, published 2005)

Experiments:
Assay type in all cases: cell-based
human erythrocytic cells = assay: Trehalose uptake by erythrocytic cells (anthrone assay, HPLC)
Procedure: FIG. 5 graphically illustrates the loading efficiency of trehalose into human erythrocytic cells as a function of external trehalose concentration at respective temperatures of 4° C. and 37° C. Erythrocytic cells were exposed to trehalose for 18 hours at either 4° C. or 37° C. The trehalose concentration in the incubation medium varied between 230 mM and 1000 mM. Each incubation buffer contained trehalose (between 230 mM and 1000 mM) and 100 mOsm PBS pH 7.2. Increase in the trehalose concentration in the loading medium results in an increase in the sugar uptake, reaching about 100 mM cytoplasmic trehalose in erythrocytes incubated in 1000 mM trehalose and 100 mOsm PBS. At 4° C., the uptake was very limited, being about 25 mM. The trehalose intake was measured using anthrone assay and confirmed by high performance liquid chromatography. It is clear that there was substantial loading at 37° C., but not at 4° C. Furthermore, trehalose loading was not significant unless the extracellular cellular trehalose concentration gives a hyperosmotic pressure.
FIG. 7 graphically illustrates trehalose uptake (i.e., intracellular trehalose mM) and hemolysis (i.e., % hemolysis) as a function of incubation temperature (° C.). The incubation temperature was varied between 4° C. and 37° C. […] Between 4° C. and 30° C., the cytoplasmic trehalose was very low (between 1 and 4 mM).
100 mOsm ADSOL contains 24 mM glucose, 0.43 mM adenine, 33.3 mM NaCl and 8.9 mM mannitol. Four different temperatures of incubation were used: 4° C., 23° C., 37° C. and 41° C. […] At 23° C., the uptake was higher than at 4° C. and increased with increase of the time of incubation reaching 22 mM intracellular trehalose. At 37° C., the highest uptake of trehalose by the erythrocytic cells was observed within 16 hours (60 mM). At 41° C., the uptake was slightly higher than that observed at 37° C. within 6 hours.

human platelets = assay: Loading of platelets with trehalose (anthrone reaction); conditions: for trehalose uptake: 37° C.; for loading efficiency of trehalose: 4 hour incubation, 50 mM external trehalose
Procedure: Washing of Platelets. Platelet concentrations were obtained from the Sacramento blood center or from volunteers in our laboratory. Platelet rich plasma was centrifuged for 8 minutes at 320×g to remove erythrocytes and leukocytes. The supernatant was pelleted and washed two times (480×g for 22 minutes, 480×g for 15 minutes) in buffer A (100 MM NaCl, 10 MM KCl, 10 mM EGTA, 10 mM imidazole, pH 6.8). Platelet counts were obtained on a Coulter counter T890 (Coulter, Inc., Miami, Fla.).
Loading of Platelets with Trehalose. Washed platelets in a concentration of 1-2 10^9 platelets/ml were incubated at various temperatures in the presence of 1-20 mg/ml trehalose. Incubation temperatures were chosen from 4° C. to 37° C. Incubation times were varied from 0.5 to 4 hours. After incubation the platelet solutions were washed in buffer A two times (by centrifugation at 14,000 RPM for 20 s in a table centrifuge). Platelet counts were obtained on a coulter counter. Platelets were pelleted (45 S at 14,000 RPM) and sugars were extracted from the pellet using 80% methanol. The samples were heated for 30 minutes at 80° C. The methanol was 10 evaporated with nitrogen, and the samples were kept dry and redissolved in H2O prior to analysis. The amount of trehalose in the platelets was quantified using the anthrone reaction (Umbreit et al., Mamometric and Biochemical Techniques, 5th Edition, 1972). Samples were redissolved in 3 ml H2O and 6 ml anthrone reagents (2 g anthrone dissolved in 10M sulfuric acid). After vortex mixing, the samples were placed in a boiling water bath for 3 minutes. Then the samples were cooled on ice and the absorbance was measured at 620 nm on a Perkin Elmer spectrophotometer. The amount of platelet associated trehalose was determined using a standard curve of trehalose.
Quantification of Trehalose and LYCH Concentration. Uptake was calculated for each sample as micrograms of trehalose or LYCH per platelet. The internal trehalose concentration was calculated assuming a platelet radius of 1.2 μm and by assuming that 50% of the platelet volume is taken up by the cytosol (rest is membranes). The loading efficiency was determined from the cytosolic trehalose or LYCH concentration and the concentration in the loading buffer.

erythrocytic cells = assay: Percent hemolysis of erythrocytic cells during loading or incubation; conditions: for percent hemolysis: 800 mM trehalose, 100 mOsm ADSOL, 6.6 mM K-phosphate
Procedure: FIG. 9 graphically illustrates % hemolysis of loaded cells as a function of time (hours) of incubation in 300 mOsm PBS pH 7.2. The erythrocytic cells were loaded in 700 mM trehalose in 100 mOsm PBS pH 7.2 at 35° C. for 16 hours. After the loading step, the cells were incubated in 300 mOsm PBS pH 7.2 between 1 and 25 hours. This buffer was used for washing the loaded cells and it was important to determine the stability of the loaded cells when they were suspended in this buffer. Cell stability was assessed by measuring the percent hemolysis over the course of 25 hours. […] Between 7 and 25 hours, there was only a small change in the percent hemolysis (from about 25% to about 30%).
FIG. 10 graphically illustrates time course (incubation time, hours) of hemolysis(%) of trehalose-loaded cells as a function of the composition of the incubation buffer. Erythrocytic cells were loaded in 700 mM trehalose in 100 mOsm PBS pH 7.2 for 16 hours at 35° C. They were washed with 300 mOsm PBS pH 7.2 and were subsequently transferred to storage media with increasing trehalose concentrations (between 100 mM and 300 mM trehalose) added to 100 mOsm PBS pH 7.2. The percent hemolysis was measured over the course of 3 hours. […]
At 23° C., the percent hemolysis increases to 7% during 6 hours of incubation. At 37° C., between 10 and 12% hemolysis is observed during incubation of erythrocytic cells between 6 and 9 hours. […] Such intracellular concentration of trehalose provides high survival of erythrocytic cells after freeze-drying and rehydration, therefore these conditions (incubation in trehalose medium between 6 and 9 hours at 37° C.) can be used for loading erythrocytic cells.

[1] = about 37° C., about nine(9) hours

OC[C@H]1O[C@H](O[C@H]2O[C@H](CO)[C@@H](O)[C@H](O)[C@H]2O)[C@H](O)[C@@H](O)[C@@H]1O [trehalose]
intracellular trehalose (human erythrocytic cells; 800 mM trehalose, 100 mOsm ADSOL, 6.6 mM K-phosphate, 4° C., 16 hours): 10 mM
intracellular trehalose (human erythrocytic cells; 800 mM trehalose, 100 mOsm ADSOL, 6.6 mM K-phosphate, 23° C.): 22 mM
intracellular trehalose (human erythrocytic cells; 800 mM trehalose, 100 mOsm ADSOL, 6.6 mM K-phosphate, 37° C., within 16 hours): 60 mM
cytoplasmic trehalose (human erythrocytic cells; 800 mM trehalose, 100 mOsm ADSOL, 6.6 mM K-phosphate, nine(9) hours at 4° C.): about 10 mM
cytoplasmic trehalose (human erythrocytic cells; 800 mM trehalose, 100 mOsm ADSOL, 6.6 mM K-phosphate, nine(9) hours at 23° C.): about 22 mM
cytoplasmic trehalose (human erythrocytic cells; 800 mM trehalose, 100 mOsm ADSOL, 6.6 mM K-phosphate, nine(9) hours at 37° C.): about 60 mM
cytoplasmic trehalose (human erythrocytic cells; 6 hours in 800 mM trehalose in 100 mOsm PBS pH 7.2, 37° C.): up to 35 mM
cytoplasmic trehalose uptake (human erythrocytic cells; 18 hours, 4° C.): about 25 mM
cytoplasmic trehalose (human erythrocytic cells; 18 hours, 37° C., 1000 mM trehalose and 100 mOsm PBS): about 100 mM
trehalose (mM) to incubation (hours) loading gradient (human erythrocytic cells; about 23° C.): about 0.75
trehalose (mM) to incubation (hours) loading gradient (human erythrocytic cells; [1]): about 1.25
intracellular trehalose (human erythrocytic cells; loaded in 400 mM trehalose in 100 mOsm PBS at 35° C. for 16 hours): 3 mM
intracellular trehalose (human erythrocytic cells; loaded in 800 mM trehalose in 100 mOsm PBS at 35° C. for 16 hours): 60 mM
trehalose left in the cells after freeze-drying (human erythrocytic cells; loaded in 800 mM trehalose/100 mOsm PBS 16 hours about 35° C., washed, freeze-dried): about 75 mM
trehalose uptake (human platelets; after 2 hours, rapid linear uptake): 3.3×10^−10 mol/m^2s
trehalose uptake (human platelets; from 0 to 2 hours): 2.8×10^−11 mol/m^2s
loading efficiency of trehalose (human platelets; 22° C. and below): below 5%
loading efficiency of trehalose (human platelets; 37° C. (FIG. 1)): 35%
loading efficiency (human platelets; time course at 37° C., incubation period of 4 hours (FIG. 2)): 61%
percent hemolysis (erythrocytic cells; 23° C., 6 hours): 7%
percent hemolysis (erythrocytic cells; 23° C., nine(9) hours): about 7%
percent hemolysis (erythrocytic cells; 37° C., nine(9) hours): about 12%
hemolysis (%) to incubation (hours) hemolysis gradient (erythrocytic cells; about 23° C.): about 0.38
hemolysis (%) to incubation (hours) hemolysis gradient (erythrocytic cells; [1]): about 0.25
percent hemolysis of trehalose-loaded cells (erythrocytic cells; loaded in 700 mM trehalose/100 mOsm PBS 35° C. 16 hours, start of incubation in 300 mOsm PBS pH 7.2): about 7%
percent hemolysis of trehalose-loaded cells (erythrocytic cells; loaded in 700 mM trehalose/100 mOsm PBS, 7 hours in 300 mOsm PBS pH 7.2): about 25%
percent hemolysis of trehalose-loaded cells (erythrocytic cells; loaded in 700 mM trehalose/100 mOsm PBS, 25 hours in 300 mOsm PBS pH 7.2): about 30%
percent hemolysis of trehalose-loaded cells (erythrocytic cells; storage medium 300 mM trehalose in 100 mOsm PBS, over the course of 3 hours): about 4%
